This is an account of results in patent US20250353891A1 (MEDIMMUNE LIMITED, priority 2022, published 2025).

Starred links: 1 amine or outer side, 2 acyl side, 3 side chain; linkers in the order of their positions; H or OH if unused. Non-standard residues stand in square brackets, D forms with d. Residues, ends and D or L forms follow the SMILES beside them. Groups on a side chain read outwards from the residue. *: point of attachment. C20 diacid = O=C(O)CCCCCCCCCCCCCCCCCCC(=O)*; C18 diacid = O=C(O)CCCCCCCCCCCCCCCCC(=O)*; γGlu = O=C(O)[C@H](CCC(=O)[*:2])N[*:1]; αMeF = C[C@](N)(Cc1ccccc1)C(=O)O; AEEA = NCCOCCOCC(=O)O; Aib = CC(C)(N)C(=O)O

For test [1], the target named is human GLP-1 receptor (hGLP-1R) (Homo sapiens, UniProt P43220). The test is described as follows: cAMP production (HTRF) in CHO cells expressing hGLP-1R. The class given is cell-based. Also noted: expressed in transfected cells. The settings on record: for EC50: Table 6, peptides modified at position 17, cAMP in CHO hGLP-1R cells, geometric mean, read-out: hGLP-1R EC50; for % Relative Potency Ratio: Table 6, % GLP-1R activity relative to GLP-1 / % GlucR activity relative to glucagon. An outline of the steps:
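Read-out: HTRF cAMP (anti-cAMP cryptate donor, cAMP-d2 acceptor in conjugate/lysis buffer), converted to % Delta F and fitted by 4-parameter logistic for EC50. Cell densities were 1×10^5 cells/mL (hGLP-1R) or 2×10^5 cells/mL (hGCGR). Stimulation lasted 30 min at room temperature.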

Test [2] has as its target human glucagon receptor (hGCGR) (Homo sapiens, UniProt P47871). In words: cAMP production (HTRF) in CHO cells expressing hGCGR. The class given is cell-based. On the set-up: expressed in transfected cells. The settings on record: Table 6, peptides modified at position 17; cAMP in CHO hGCGR cells; geometric mean; read-out: hGluc-R EC50. As to the method: Cells were re-suspended in assay buffer at a batch-dependent optimized concentration (typically hGLP-1R cells at 1×10^5 cells/mL, hGCGR cells at 2×10^5 cells/mL).
Cells were added to the assay plate using a multidrop dispenser and incubated at room temperature for 30 minutes before measuring the cAMP level using a cAMP dynamic 2 homogeneous time resolved Fluorescence (HTRF) kit (Cisbio Bioassays #62AM4PEJ) following the two-step protocol as per manufacturer's recommendations. In brief, anti-cAMP cryptate (donor fluorophore) and cAMP-d2 (acceptor fluorophore) were made up separately by diluting each 1 in 20 in conjugate and lysis buffer provided in the kit. Anti-CAMP cryptate was added to all wells of the assay plate, followed by cAMP-d2 added to all wells except non-specific binding (NSB) wells (to which conjugate and lysis buffer was added).
Data was transformed to % Delta F as described in the manufacturer's guidelines and analyzed by 4-parameter logistic fit to determine EC50 values.

human GLP-1 receptor (hGLP-1R), sequence (P43220 24-463): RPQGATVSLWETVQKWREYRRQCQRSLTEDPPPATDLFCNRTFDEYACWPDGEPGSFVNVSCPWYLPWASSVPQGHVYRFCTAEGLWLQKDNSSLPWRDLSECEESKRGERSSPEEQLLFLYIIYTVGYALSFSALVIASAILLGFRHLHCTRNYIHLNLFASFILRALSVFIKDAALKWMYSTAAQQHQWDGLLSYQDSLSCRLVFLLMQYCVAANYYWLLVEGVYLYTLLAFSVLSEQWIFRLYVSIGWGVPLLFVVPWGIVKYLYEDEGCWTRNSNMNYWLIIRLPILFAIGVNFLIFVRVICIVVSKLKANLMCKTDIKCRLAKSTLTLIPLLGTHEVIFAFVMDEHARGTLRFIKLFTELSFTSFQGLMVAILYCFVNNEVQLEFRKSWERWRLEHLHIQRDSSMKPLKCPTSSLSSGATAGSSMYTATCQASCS
human glucagon receptor (hGCGR), sequence (P47871 26-477): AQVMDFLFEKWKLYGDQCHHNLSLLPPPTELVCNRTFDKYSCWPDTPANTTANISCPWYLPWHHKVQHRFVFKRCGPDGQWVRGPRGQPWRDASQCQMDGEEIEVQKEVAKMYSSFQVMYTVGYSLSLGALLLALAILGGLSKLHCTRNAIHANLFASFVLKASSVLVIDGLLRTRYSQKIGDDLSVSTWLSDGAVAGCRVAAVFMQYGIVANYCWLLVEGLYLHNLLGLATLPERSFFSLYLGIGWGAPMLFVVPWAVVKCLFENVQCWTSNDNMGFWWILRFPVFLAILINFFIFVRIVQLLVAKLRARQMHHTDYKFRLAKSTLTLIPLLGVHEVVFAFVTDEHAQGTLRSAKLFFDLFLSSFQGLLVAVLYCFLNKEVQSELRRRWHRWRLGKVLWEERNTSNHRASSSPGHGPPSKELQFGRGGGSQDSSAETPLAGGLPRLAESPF

For the molecule `CC[C@H](C)[C@H](NC(=O)[C@H](Cc1c[nH]c2ccccc12)NC(=O)[C@H](CCC(N)=O)NC(=O)[C@@H](NC(=O)[C@H](Cc1ccccc1)NC(=O)[C@H](CC(=O)O)NC(=O)[C@H](CCC(N)=O)NC(=O)[C@H](C)NC(=O)[C@H](C)NC(=O)[C@H](CCCCNC(=O)COCCOCCNC(=O)COCCOCCNC(=O)CC[C@H](NC(=O)CCCCCCCCCCCCCCCCC(=O)O)C(=O)O)NC(=O)[C@H](CO)NC(=O)[C@H](CC(=O)O)NC(=O)[C@H](CC(C)C)NC(=O)[C@](C)(Cc1ccccc1)NC(=O)[C@H](CCCCN)NC(=O)[C@H](CO)NC(=O)[C@@H](NC(=O)[C@H](CC(=O)O)NC(=O)[C@H](CO)NC(=O)[C@@H](NC(=O)[C@](C)(Cc1ccccc1)NC(=O)[C@H](CO)NC(=O)CNC(=O)[C@H](Cc1c[nH]cn1)NC(=O)C(C)(C)NC(=O)[C@@H](N)Cc1c[nH]cn1)[C@@H](C)O)C(C)C)C(C)C)C(=O)N[C@@H](C)C(=O)N[C@@H](CC(N)=O)C(=O)N[C@H](C(N)=O)[C@@H](C)O` [Peptide 8] (H-H[Aib]HGS[αMeF]TSDVSK[αMeF]LDSK([AEEA-AEEA-γGlu-C18 diacid])AAQDFVQWIANT-NH2; N-terminus assumed), in test [1], the EC50 stood at 0.0878 nM and the “% Relative Potency Ratio” value worked out at 1.2. In test [2], the EC50 turned out to be 0.0536 nM.

As for `CC[C@H](C)[C@H](NC(=O)[C@H](Cc1c[nH]c2ccccc12)NC(=O)[C@H](CCC(N)=O)NC(=O)[C@@H](NC(=O)[C@H](Cc1ccccc1)NC(=O)[C@H](CC(=O)O)NC(=O)[C@H](CCCNC(=N)N)NC(=O)[C@H](C)NC(=O)[C@H](C)NC(=O)[C@H](CCCCNC(=O)COCCOCCNC(=O)COCCOCCNC(=O)CC[C@H](NC(=O)CCCCCCCCCCCCCCCCC(=O)O)C(=O)O)NC(=O)[C@H](CO)NC(=O)[C@H](CC(=O)O)NC(=O)[C@H](CC(C)C)NC(=O)[C@](C)(Cc1ccccc1)NC(=O)[C@H](CCCCN)NC(=O)[C@H](CO)NC(=O)[C@@H](NC(=O)[C@H](CC(=O)O)NC(=O)[C@H](CO)NC(=O)[C@@H](NC(=O)[C@](C)(Cc1ccccc1)NC(=O)[C@H](CO)NC(=O)CNC(=O)[C@H](Cc1c[nH]cn1)NC(=O)C(C)(C)NC(=O)[C@@H](N)Cc1c[nH]cn1)[C@@H](C)O)C(C)C)C(C)C)C(=O)N[C@@H](C)C(=O)N[C@@H](CC(N)=O)C(=O)N[C@H](C(N)=O)[C@@H](C)O` [Peptide 9] (H-H[Aib]HGS[αMeF]TSDVSK[αMeF]LDSK([AEEA-AEEA-γGlu-C18 diacid])AARDFVQWIANT-NH2; N-terminus assumed), in test [1], the EC50 came out at 0.242 nM and the “% Relative Potency Ratio” value is given as 2.3. In addition, the EC50 in test [2] is 0.279 nM.

As to `CC[C@H](C)[C@H](NC(=O)[C@H](Cc1c[nH]c2ccccc12)NC(=O)[C@H](CCC(=O)O)NC(=O)[C@@H](NC(=O)[C@H](Cc1ccccc1)NC(=O)[C@H](CC(=O)O)NC(=O)[C@H](CCCNC(=N)N)NC(=O)[C@H](C)NC(=O)[C@H](C)NC(=O)[C@H](CCCCNC(=O)COCCOCCNC(=O)COCCOCCNC(=O)CC[C@H](NC(=O)CCCCCCCCCCCCCCCCC(=O)O)C(=O)O)NC(=O)[C@H](CO)NC(=O)[C@H](CC(=O)O)NC(=O)[C@H](CC(C)C)NC(=O)[C@](C)(Cc1ccccc1)NC(=O)[C@H](CCCCN)NC(=O)[C@H](CO)NC(=O)[C@@H](NC(=O)[C@H](CC(=O)O)NC(=O)[C@H](CO)NC(=O)[C@@H](NC(=O)[C@](C)(Cc1ccccc1)NC(=O)[C@H](CO)NC(=O)CNC(=O)[C@H](Cc1c[nH]cn1)NC(=O)C(C)(C)NC(=O)[C@@H](N)Cc1c[nH]cn1)[C@@H](C)O)C(C)C)C(C)C)C(=O)N[C@@H](C)C(=O)N[C@@H](CC(N)=O)C(=O)N[C@H](C(N)=O)[C@@H](C)O` [Peptide 10] (H-H[Aib]HGS[αMeF]TSDVSK[αMeF]LDSK([AEEA-AEEA-γGlu-C18 diacid])AARDFVEWIANT-NH2; N-terminus assumed), in test [1], the EC50 was determined as 0.658 nM and the “% Relative Potency Ratio” value was found to be 1.1. In addition, in test [2], the EC50 was 0.377 nM.

Turning to `CC[C@H](C)[C@H](NC(=O)C(C)(C)NC(=O)[C@H](CCC(N)=O)NC(=O)[C@@H](NC(=O)[C@H](Cc1ccccc1)NC(=O)[C@H](CC(=O)O)NC(=O)[C@H](CCC(N)=O)NC(=O)[C@H](C)NC(=O)[C@H](C)NC(=O)[C@H](CCCCNC(=O)COCCOCCNC(=O)COCCOCCNC(=O)CC[C@H](NC(=O)CCCCCCCCCCCCCCCCC(=O)O)C(=O)O)NC(=O)[C@H](CO)NC(=O)[C@H](CC(=O)O)NC(=O)[C@H](CC(C)C)NC(=O)[C@](C)(Cc1ccccc1)NC(=O)[C@H](CCCCN)NC(=O)[C@H](CO)NC(=O)[C@@H](NC(=O)[C@H](CC(=O)O)NC(=O)[C@H](CO)NC(=O)[C@@H](NC(=O)[C@](C)(Cc1ccccc1)NC(=O)[C@H](CO)NC(=O)CNC(=O)[C@H](Cc1c[nH]cn1)NC(=O)C(C)(C)NC(=O)[C@@H](N)Cc1c[nH]cn1)[C@@H](C)O)C(C)C)C(C)C)C(=O)N[C@@H](C)C(=O)N[C@@H](CC(N)=O)C(=O)N[C@H](C(N)=O)[C@@H](C)O` [Peptide 11] (H-H[Aib]HGS[αMeF]TSDVSK[αMeF]LDSK([AEEA-AEEA-γGlu-C18 diacid])AAQDFVQ[Aib]IANT-NH2), in test [1], the 50% effective concentration (EC50) stood at 0.157 nM and the “% Relative Potency Ratio” value stood at 1.5. The EC50 in test [2] was found to be 0.118 nM.

As for `CC[C@H](C)[C@H](NC(=O)C(C)(C)NC(=O)[C@H](CCC(N)=O)NC(=O)[C@@H](NC(=O)[C@H](Cc1ccccc1)NC(=O)[C@H](CC(=O)O)NC(=O)[C@H](CCCNC(=N)N)NC(=O)[C@H](C)NC(=O)[C@H](C)NC(=O)[C@H](CCCCNC(=O)COCCOCCNC(=O)COCCOCCNC(=O)CC[C@H](NC(=O)CCCCCCCCCCCCCCCCC(=O)O)C(=O)O)NC(=O)[C@H](CO)NC(=O)[C@H](CC(=O)O)NC(=O)[C@H](CC(C)C)NC(=O)[C@](C)(Cc1ccccc1)NC(=O)[C@H](CCCCN)NC(=O)[C@H](CO)NC(=O)[C@@H](NC(=O)[C@H](CC(=O)O)NC(=O)[C@H](CO)NC(=O)[C@@H](NC(=O)[C@](C)(Cc1ccccc1)NC(=O)[C@H](CO)NC(=O)CNC(=O)[C@H](Cc1c[nH]cn1)NC(=O)C(C)(C)NC(=O)[C@@H](N)Cc1c[nH]cn1)[C@@H](C)O)C(C)C)C(C)C)C(=O)N[C@@H](C)C(=O)N[C@@H](CC(N)=O)C(=O)N[C@H](C(N)=O)[C@@H](C)O` [Peptide 12] (H-H[Aib]HGS[αMeF]TSDVSK[αMeF]LDSK([AEEA-AEEA-γGlu-C18 diacid])AARDFVQ[Aib]IANT-NH2; N-terminus assumed), the results for the EC50 in test [1] and in test [2] were 0.0145 nM and 0.0477 nM, respectively. In addition, the “% Relative Potency Ratio” value in test [1] is 6.5.

Turning to `CC[C@H](C)[C@H](NC(=O)C(C)(C)NC(=O)[C@H](CCC(N)=O)NC(=O)[C@@H](NC(=O)[C@](C)(Cc1ccccc1)NC(=O)[C@H](CC(=O)O)NC(=O)[C@H](CCCNC(=N)N)NC(=O)[C@H](C)NC(=O)[C@H](C)NC(=O)[C@H](CCCCNC(=O)COCCOCCNC(=O)COCCOCCNC(=O)CC[C@H](NC(=O)CCCCCCCCCCCCCCCCC(=O)O)C(=O)O)NC(=O)[C@H](CO)NC(=O)[C@H](CC(=O)O)NC(=O)[C@H](CC(C)C)NC(=O)[C@](C)(Cc1ccccc1)NC(=O)[C@H](CCCCN)NC(=O)[C@H](CO)NC(=O)[C@@H](NC(=O)[C@H](CC(=O)O)NC(=O)[C@H](CO)NC(=O)[C@@H](NC(=O)[C@](C)(Cc1ccccc1)NC(=O)[C@H](CO)NC(=O)CNC(=O)[C@H](Cc1c[nH]cn1)NC(=O)C(C)(C)NC(=O)[C@@H](N)Cc1c[nH]cn1)[C@@H](C)O)C(C)C)C(C)C)C(=O)N[C@@H](C)C(=O)N[C@@H](CC(N)=O)C(=O)N[C@H](C(N)=O)[C@@H](C)O` [Peptide 13] (H-H[Aib]HGS[αMeF]TSDVSK[αMeF]LDSK([AEEA-AEEA-γGlu-C18 diacid])AARD[αMeF]VQ[Aib]IANT-NH2; N-terminus assumed), in test [1], the EC50 turned out to be 0.0159 nM and the “% Relative Potency Ratio” value came to 5.5. For the same molecule, the EC50 in test [2] turned out to be 0.044 nM.

Consider `CC[C@H](C)[C@H](NC(=O)C(C)(C)NC(=O)[C@H](CCC(N)=O)NC(=O)[C@@H](NC(=O)[C@](C)(Cc1ccccc1)NC(=O)[C@H](CC(=O)O)NC(=O)[C@H](CCCNC(=N)N)NC(=O)[C@H](C)NC(=O)[C@H](C)NC(=O)[C@H](CCCCNC(=O)COCCOCCNC(=O)COCCOCCNC(=O)CC[C@H](NC(=O)CC[C@H](NC(=O)CCCCCCCCCCCCCCCCCCC(=O)O)C(=O)O)C(=O)O)NC(=O)[C@H](CO)NC(=O)[C@H](CC(=O)O)NC(=O)[C@H](CC(C)C)NC(=O)[C@](C)(Cc1ccccc1)NC(=O)[C@H](CCCCN)NC(=O)[C@H](CO)NC(=O)[C@@H](NC(=O)[C@H](CC(=O)O)NC(=O)[C@H](CO)NC(=O)[C@@H](NC(=O)[C@](C)(Cc1ccccc1)NC(=O)[C@H](CO)NC(=O)CNC(=O)[C@H](Cc1c[nH]cn1)NC(=O)C(C)(C)NC(=O)[C@@H](N)Cc1c[nH]cn1)[C@@H](C)O)C(C)C)C(C)C)C(=O)N[C@@H](C)C(=O)N[C@@H](CC(N)=O)C(=O)N[C@H](C(N)=O)[C@@H](C)O` [Peptide 14] (H-H[Aib]HGS[αMeF]TSDVSK[αMeF]LDSK([AEEA-AEEA-γGlu-γGlu-C20 diacid])AARD[αMeF]VQ[Aib]IANT-NH2; N-terminus assumed), for which, in test [1], the EC50 worked out at 0.0938 nM and the “% Relative Potency Ratio” value is given as 9.7. For the same molecule, the EC50 in test [2] was 0.462 nM.
